Entries after “also recorded” stand apart in the source; their conditions may differ.
What was measured:
Type in all cases: cell-based, human
[1] = system: JEG-3 cells; test: Proliferation, change in confluence 0-24 h (IncuCyte Zoom, HTTS); conditions: for minimal effective concentration: read-out: Prolif ↓, lowest concentration at which the mean response value exceeded the mean control value ± 2*SD (rough binning); for Prolif ↑, lowest concentration at which the mean response value exceeded the mean control value ± 2*SD (rough binning): increase; for cellular proliferation relative to vehicle control (rough binning): after 24 h, in at least one concentration
Source text: (§1) JEG-3 human choriocarcinoma trophoblastic cells (American Type Culture Collection, VA, United States) were maintained in sterile-filtered Minimum Essential Media (MEM) supplemented with L-glutamine and phenol red (Thermo Fisher Scientific, MA, United States), 10% (v/v) heat-inactivated BenchMark Fetal Bovine Serum (Gemini Bio, CA, United States), 1% (v/v) sodium pyruvate (Thermo Fisher Scientific, MA, United States), and 1% (v/v) penicillin streptomycin (Sigma Aldrich, MO, United States). Cells were maintained in an incubator at 37°C with 5% CO2. JEG-3 cells were cultured in 10 cm tissue culture plates and cell passage numbers were recorded.
(§2) A total of 42 perfluoroalkyl substances (PFAS) were evaluated (Supplementary Table S1 contains source and purity). PFAS stock solutions were maintained in 100% methanol as previous work has shown certain PFAS degrade when stored in dimethyl sulfoxide (DMSO; [Gaballah et al., 2020]). […] The vehicle control group consisted of 97.5% media + 2.5% methanol to match the concentration of methanol in the media at the highest PFAS concentration tested (500 µM). Menadione (50–500 µM) was used as a positive control for cytotoxicity assessment. PFAS were de-identified and assigned random numbers to eliminate bias. Chemical exposure plate maps were designed so that all experimental conditions were tested in at least technical duplicates per plate. The outer edges of each plate received media alone and were excluded from all analyses to avoid edge effects. Each plate map included 14 technical replicates of the vehicle control group and 14 technical replicates of media only. Biological replicates were defined as separate 384 well plates tested on separate days using different cell passages. The experimental workflow is depicted in Supplementary Figure S1.
(§3) JEG-3 cells were counted using a Z2 Coulter Particle Counter (Beckman Coulter, CA, United States) and seeded at a density of 2,500 cells per well in black-walled, clear bottom 384 well plates (Corning, #3764) and allowed to adhere overnight. Approximately 24 h later, 384 well plates were imaged using an IncuCyte Zoom live cell imager (Essen BioScience Inc., MI, United States) to obtain baseline cellular confluence measurements prior to chemical dosing (0 h). Media was removed from wells and replaced with fresh media containing chemical treatments (exposure media) using a Viaflo liquid handling device (Integra Biosciences, NH, United States). Within 30 min of exposure media application, plates were again imaged for cellular confluence using the IncuCyte Zoom. Plates were incubated with exposure media for 24 h and then imaged again using the IncuCyte Zoom (24 h).
Plate well bottom images were evaluated using automated cell masking. The automated cell masking program was developed using IncuCyte Zoom base software. Cell masking parameters were defined using a training set of JEG-3 cell images obtained prior to conducting the experiments and following IncuCyte Zoom software recommendations. Briefly, the training images were obtained from cell culture plates with varying levels of JEG-3 cellular confluence (ranging from ∼15% confluent to ∼95% confluent). Parameters for the automated cell masking were first manually set by an experimenter for 3-6 images of low (∼15–30%), medium (∼30–70%), and high confluence (∼70% or greater). The training images were then evaluated by the automated masking program and manually checked to ensure the parameters were sufficiently strict to ignore background (e.g., blank space on the plate well bottom) but adequately sensitive to detect cell borders. The masking program was then implemented on the experimental plates to obtain a baseline cellular confluence measurement at 0 h and a second confluence measurement at 24 h. […]

[2] = system: JEG-3 cells; test: Mitochondrial membrane potential, JC-10 assay (HTTS); conditions: for minimal effective concentration: read-out: MMP ↓, lowest concentration at which the mean response value exceeded the mean control value ± 2*SD (rough binning); for MMP relative to vehicle control (rough binning): after 24 h, in at least one concentration
Source text: as §1, §2, §3
The JC-10 assay (Enzo Life Sciences, NY, United States) was used to evaluate mitochondrial membrane potential, the main bioenergetic parameter that regulates respiratory rate, ATP synthesis and reactive oxygen species generation. In cells with polarized mitochondrial membranes, the JC-10 dye localizes to the mitochondrial matrix and forms red fluorescent aggregates (540/590 nm). In cells with depolarized mitochondrial membranes, the JC-10 dye localizes in the cytoplasm and converts to a green fluorescent monomer (490/525 nm). Mitochondrial membrane potential was calculated as the ratio of the green and red fluorescence intensities within a well.
At the end of the 24 h exposure period, exposure media was removed from the plate. The plate wells were then washed with 1x phosphate buffered saline (1x PBS). After washing, the JC-10 reagent was suspended in fresh 1x PBS and 20 µl was added to each well at a final concentration of 20 μM (Enzo Life Sciences, NY, United States). The plate was incubated for 1 h at 37°C, and the fluorescence intensities at excitation/emission wavelengths of 490/525 nm and 540/590 nm were measured using a CLARIOstar (BMG Labtech, Offenburg, Germany) plate reader, respectively.
HTTS data were analyzed using a custom data analysis script in R v 1.2.5019 ([R Core Team, 2019]). […]

[3] = system: JEG-3 cells; test: CellTiter-Glo luminescent cell viability assay (HTTS); conditions: for Viability ↓, lowest concentration at which the mean response value exceeded the mean control value ± 2*SD (rough binning): decrease; for cell viability relative to vehicle control (rough binning): after 24 h, in at least one concentration
Source text: as §1, §2, §3
In the same plate evaluated for mitochondrial membrane potential, cell viability measures were duplexed using the CellTiter-Glo (CTG) Luminescent Cell Viability Assay (Promega, WI, United States). CTG reagent was added to each well at a volume of 20 µl. The plate was left at room temperature to incubate for 5 min and then 20 µl from each well was transferred to a low-volume, round-bottom, white 384 well plate (Corning, NY, United States). The CTG reagent lyses cellular and mitochondrial membranes and binds to adenosine triphosphate (ATP) released by cells, which produces a luminescence signal. The intensity of the luminescence was considered a proxy measure for the number of live cells in a well. The luminescence intensities were measured using the CLARIOstar plate reader.
HTTS data were analyzed using a custom data analysis script in R v 1.2.5019 ([R Core Team, 2019]). Briefly, raw data points corresponding to the confluence measurements at 0 and 24 h, the fluorescence intensities corresponding to MMP, and the relative luminescence units (RLU) corresponding to cell viability were imported directly from Microsoft Excel into the R programming environment, RStudio. Separate plates run on separate days using different JEG-3 passages were considered as biologic replicates. […]

[4] = Homo sapiens, JEG-3, 24 h, read-out: Proliferation EC50 ± SD, JEG-3 cells, 24 h exposure, four-parameter fit, estimates meeting inclusion criteria
[5] = Homo sapiens, JEG-3, 24 h, read-out: proliferation EC50 ± SE, JEG-3 cells, 24 h
[6] = Homo sapiens, JEG-3, 24 h, read-out: Viability EC50 ± SD, JEG-3 cells, 24 h exposure, four-parameter fit, estimates meeting inclusion criteria
[7] = JEG-3 cells, raw model output including fits that did not meet inclusion criteria, read-out: Proliferation EC50 ± SD (raw values)
[8] = JEG-3 cells, 24 h exposure, four-parameter fit, estimates meeting inclusion criteria, read-out: Proliferation EC50 ± SD
[9] = JEG-3 cells, 24 h exposure, four-parameter fit, estimates meeting inclusion criteria, read-out: MMP EC50 ± SD
[10] = JEG-3 cells, 24 h exposure, four-parameter fit, estimates meeting inclusion criteria, read-out: Viability EC50 ± SD

| SMILES | minimal effective concentration ([1]; Homo sapiens, JEG-3, 24 h) [µM] | EC50 [1, 4] [µM] | Prolif ↑, lowest concentration at which the mean response value exceeded the mean control value ± 2*SD (rough binning) ([1]; JEG-3 cells, 24 h) [µM] | MMP relative to vehicle control (rough binning) [2] | EC50 [3, 6] [µM] | cell viability relative to vehicle control (rough binning) [3] | cellular proliferation relative to vehicle control (rough binning) [1] | EC50 [1, 8] [µM] | EC50 [2, 9] [µM] | EC50 [3, 10] [µM] | other results |
| --- | --- | --- | --- | --- | --- | --- | --- | --- | --- | --- | --- |
| CCN(CC(=O)O)S(=O)(=O)C(F)(F)C(F)(F)C(F)(F)C(F)(F)C(F)(F)C(F)(F)C(F)(F)C(F)(F)F [2-(N-Ethylperfluorooctanesulfonamido)acetic acid] | 250 | 204 ± 17.7 | 50 | reduced MMP | 203 ± 44.7 | reduced cell viability | – | – | – | – | EC50 [1, 5]: 204 ± 18 µM; minimal effective concentration ([2]; Homo sapiens, JEG-3, 24 h): 150 µM; Viability ↓, lowest concentration at which the mean response value exceeded the mean control value ± 2*SD (rough binning) ([3]; JEG-3 cells, 24 h): 250 µM |
| O=C(O)CCC(F)(F)C(F)(F)C(F)(F)C(F)(F)C(F)(F)F [2H,2H,3H,3H-Perfluorooctanoic acid] | – | – | 50 | – | – | increased cell viability | increased cellular proliferation | – | – | – | EC50 [1, 7]: 951 ± 671 µM; EC50 ([2]; JEG-3 cells, raw model output including fits that did not meet inclusion criteria, read-out: MMP EC50 ± SD (raw values)): 71780 ± 10 µM |
| O=P(O)(OCCC(F)(F)C(F)(F)C(F)(F)C(F)(F)C(F)(F)C(F)(F)F)OCCC(F)(F)C(F)(F)C(F)(F)C(F)(F)C(F)(F)C(F)(F)F [6:2 Fluorotelomer phosphate diester] | 188 | 142 ± 39.2 | 37.5 | – | – | increased cell viability | reduced cellular proliferation; also recorded: increased cellular proliferation | – | – | – | EC50 [1, 5]: 142 ± 39.4 µM; EC50 ([2]; Homo sapiens, JEG-3, read-out: MMP EC50 ± SD (raw values), JEG-3 cells, raw model output including fits that did not meet inclusion criteria): 64402 ± 10 µM; Viability ↑, lowest concentration at which the mean response value exceeded the mean control value ± 2*SD (rough binning) ([3]; JEG-3 cells, 24 h, increase): 112.5 µM |
| O=P(O)(O)OCCC(F)(F)C(F)(F)C(F)(F)C(F)(F)C(F)(F)C(F)(F)F [6:2 Fluorotelomer phosphate monoester] | – | – | – | – | – | – | – | 193 ± 3.8 | 248 ± 62.1 | 183 ± 21.7 | EC50 ([1]; JEG-3 cells, 24 h, read-out: proliferation EC50 ± SE): 193 ± 4 µM; EC50 ([3]; JEG-3 cells, 24 h, read-out: viability EC50 ± SE): 183 ± 22 µM |
| O=C(O)C(F)(F)C(F)(F)C(F)(F)C(F)(F)C(F)(F)C(F)(F)C(F)F [8-H-Perfluorooctanoic acid] | – | – | – | – | – | – | – | 441 ± 18.1 | 147 ± 27.1 | 318 ± 183 | – |
| O=P(O)(OCCC(F)(F)C(F)(F)C(F)(F)C(F)(F)C(F)(F)C(F)(F)C(F)(F)C(F)(F)F)OCCC(F)(F)C(F)(F)C(F)(F)C(F)(F)C(F)(F)C(F)(F)C(F)(F)C(F)(F)F [8:2 Fluorotelomer phosphate diester] | – | – | – | reduced MMP | – | reduced cell viability | reduced cellular proliferation | – | – | – | Prolif ↓, lowest concentration at which the mean response value exceeded the mean control value ± 2*SD (rough binning) ([1]; JEG-3 cells, 24 h, decrease): 100 µM; MMP ↓, lowest concentration at which the mean response value exceeded the mean control value ± 2*SD (rough binning) ([2]; JEG-3 cells, 24 h, decrease): 350 µM; Viability ↓, lowest concentration at which the mean response value exceeded the mean control value ± 2*SD (rough binning) ([3]; JEG-3 cells, 24 h): 50 µM |
| O=P(O)(O)OCCC(F)(F)C(F)(F)C(F)(F)C(F)(F)C(F)(F)C(F)(F)C(F)(F)C(F)(F)F [8:2 Fluorotelomer phosphate monoester] | – | – | – | – | – | – | – | 251 ± 37.6 | 312 ± 29.8 | 360 ± 30.3 | – |
| O=S(=O)(O)CCC(F)(F)C(F)(F)C(F)(F)C(F)(F)C(F)(F)C(F)(F)C(F)(F)C(F)(F)F [8:2 Fluorotelomer sulfonic acid] | – | 321 ± 171 | – | – | 160 ± 45.7 | – | – | – | – | – | EC50 ([2]; Homo sapiens, JEG-3, 24 h, read-out: MMP EC50 ± SD, JEG-3 cells, 24 h exposure, four-parameter fit, estimates meeting inclusion criteria): 331 ± 5.7 µM; EC50 ([3]; Homo sapiens, JEG-3, 24 h, read-out: viability EC50 ± SE, JEG-3 cells, 24 h): 160 ± 46 µM |
| O=C(O)C(F)(F)C(F)(F)C(F)(F)C(F)(F)C(F)(F)C(F)(F)C(F)(F)C(F)F [9-H-Perfluorononanoic acid] | – | – | – | – | – | – | – | – | 187 ± 27.6 | 350 ± 43.1 | EC50 [1, 7]: 1230 ± 118 µM |
| O=C(O)C(F)(F)OC(F)(F)C(F)(F)OC(F)(F)C(F)(F)OC(F)(F)F [Perfluoro-3,6,9-trioxadecanoic acid] | 350 | 303 ± 30.1 | – | reduced MMP | 267 ± 26.8 | – | reduced cellular proliferation | – | – | – | minimal effective concentration ([2]; Homo sapiens, JEG-3, 24 h): 450 µM |

Reference: publication PMC9081605, “A High-Throughput Toxicity Screen of 42 Per- and Polyfluoroalkyl Substances (PFAS) and Functional Assessment of Migration and Gene Expression in Human Placental Trophoblast Cells” (Frontiers in Toxicology, 2022)
